According to the Kinase Knowledgebase extract (Sharma et al. 2016):

Tests used:
MAPK14 (human) [1] = biological target: MAPK14 (human) (UniProt Q16539); assay: Inhibition of MAPK14 Kinase Activity by EGFRP Assay
MAPK14 (human) [2] = biological target: MAPK14 (human) (UniProt Q16539); assay: Inhibition of LPS Stimulated TNF Production by U937 Cells; conditions: for inhibition: concentration not given here
MAPK14 (human) [3] = biological target: MAPK14 (human) (UniProt Q16539); assay: Inhibition of MAPK14 Kinase Activity by PHAS-I Assay; conditions: concentration not given here

MAPK14 (human), sequence (Q16539 whole entry, looked up): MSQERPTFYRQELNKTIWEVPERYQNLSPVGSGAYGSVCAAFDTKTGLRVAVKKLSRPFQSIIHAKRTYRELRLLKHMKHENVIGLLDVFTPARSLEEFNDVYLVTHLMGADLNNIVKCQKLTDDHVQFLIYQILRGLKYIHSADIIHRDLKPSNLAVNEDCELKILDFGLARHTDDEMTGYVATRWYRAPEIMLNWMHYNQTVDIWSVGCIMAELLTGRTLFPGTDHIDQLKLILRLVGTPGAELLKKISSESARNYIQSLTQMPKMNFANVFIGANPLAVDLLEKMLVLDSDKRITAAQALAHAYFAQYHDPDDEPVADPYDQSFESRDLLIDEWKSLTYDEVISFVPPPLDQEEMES

| SMILES | IC50 (MAPK14 (human) [1]) | IC50 (MAPK14 (human) [2]) | inhibition (MAPK14 (human) [3]) | inhibition (MAPK14 (human) [2]) |
| --- | --- | --- | --- | --- |
| Cn1cc(-c2ccncc2)c(-c2cccc(Cl)c2)n1.Cn1ncc(-c2ccncc2)c1-c1cccc(Cl)c1 | 103 nM | – | – | – |
| CCOC(=O)C(CCSC)NC(=O)NCCc1[nH]nc(-c2ccc(F)cc2)c1-c1ccncc1 (stereo not drawn) | – | – | 69% | 54% |
| CCOC(=O)C(CCSC)NC(=O)NCc1[nH]nc(-c2ccc(F)cc2)c1-c1ccncc1 (stereo not drawn) | – | – | 44% | 22% |
| O=S(=O)(NCCCc1[nH]nc(-c2ccc(F)cc2)c1-c1ccncc1)C(F)(F)F | – | – | 74% | 68% |
| O=C(NCCc1[nH]nc(-c2ccc(F)cc2)c1-c1ccncc1)c1ccccc1I | – | – | 65% | 23% |

The next lines start with the values.

| IC50 (MAPK14 (human) [1]) | IC50 (MAPK14 (human) [2]) | inhibition (MAPK14 (human) [3]) | inhibition (MAPK14 (human) [2]) | SMILES |
| --- | --- | --- | --- | --- |
| < 10 nM | 7.4 nM | – | – | Fc1ccc(-c2n[nH]cc2-c2ccnc(NCCn3ccnc3)c2)cc1 |
| 44 nM | – | – | – | Cc1cc(-c2cn(C)nc2-c2cccc(Cl)c2)ccn1.Cc1cc(-c2cnn(C)c2-c2cccc(Cl)c2)ccn1 |
| 104 nM | – | – | – | Cc1cccc(-c2c(-c3ccnc(C)c3)cnn2C)c1 |
